The record followed here is ChEMBL document CHEMBL1201862, “PubChem BioAssay data set” (2004).

Active and inactive are the calls of the source.

Assay [1] is described as follows: off-target signal loss in HeLa-CEM21 co-culture – HeLa F-luc CTL cells, cherry-picked, counter-screen for HIV-1 Env fusion inhibitor project, dose response (AID 652040).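 Further: potency for signal decrease marking cytotoxic or nonspecific inhibition.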 The class given is functional, cell-based. (In general: The purpose of a counterscreen is to sort out artefacts and off-target activity.)
Assay [2] is described as follows: inhibitors of clade B AD8 Env fusion, dose response, cell-based, cherry-pick (AID 652062).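 Further: luciferase signal from cell-cell fusion driven by HIV-1 clade B AD8 Env; potency is for inhibitors of fusion seen as a drop in luminescence.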 Type of assay: functional.
A short description of assay [3]: Luminescence Cell-Based Dose Retest to Confirm Inhibitors of Cancer Stem Cells. [Related pubchem assays (depositor defined):AID2717, AID2721]. Type of assay: functional. Particulars: Homo sapiens.
A short description of assay [4]: inhibitors of HIV Env-driven cell fusion, dose response, cherry-pick (AID 652057). The class given is functional, cell-based.
The nature of assay [5]: ZM109 Env clade C HIV-1 fusion inhibitors, dose response, HeLa effector, CEM target cells, luciferase, cherry-pick (AID 652058). Type of assay: functional, cell-based.
Assay [6] can be described thus: A549 cell cytotoxicity, dose response, cytotoxicity control, plate reader, cherry-pick, antagonist series (AID 743412). The class given is functional, cell-based.
Assay [7] addresses T1, Ubiquitin-conjugating enzyme E2 N (Homo sapiens, UniProt P61088).
T1 sequence (P61088 whole entry): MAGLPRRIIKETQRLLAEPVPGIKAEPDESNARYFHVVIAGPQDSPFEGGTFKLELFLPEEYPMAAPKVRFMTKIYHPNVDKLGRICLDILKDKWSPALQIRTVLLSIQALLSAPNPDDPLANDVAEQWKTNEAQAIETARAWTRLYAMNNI
The class given is functional.

Assay [8] concerns the target T2, Apoptotic protease-activating factor 1 (Homo sapiens, UniProt O14727).
T2 sequence (O14727 whole entry): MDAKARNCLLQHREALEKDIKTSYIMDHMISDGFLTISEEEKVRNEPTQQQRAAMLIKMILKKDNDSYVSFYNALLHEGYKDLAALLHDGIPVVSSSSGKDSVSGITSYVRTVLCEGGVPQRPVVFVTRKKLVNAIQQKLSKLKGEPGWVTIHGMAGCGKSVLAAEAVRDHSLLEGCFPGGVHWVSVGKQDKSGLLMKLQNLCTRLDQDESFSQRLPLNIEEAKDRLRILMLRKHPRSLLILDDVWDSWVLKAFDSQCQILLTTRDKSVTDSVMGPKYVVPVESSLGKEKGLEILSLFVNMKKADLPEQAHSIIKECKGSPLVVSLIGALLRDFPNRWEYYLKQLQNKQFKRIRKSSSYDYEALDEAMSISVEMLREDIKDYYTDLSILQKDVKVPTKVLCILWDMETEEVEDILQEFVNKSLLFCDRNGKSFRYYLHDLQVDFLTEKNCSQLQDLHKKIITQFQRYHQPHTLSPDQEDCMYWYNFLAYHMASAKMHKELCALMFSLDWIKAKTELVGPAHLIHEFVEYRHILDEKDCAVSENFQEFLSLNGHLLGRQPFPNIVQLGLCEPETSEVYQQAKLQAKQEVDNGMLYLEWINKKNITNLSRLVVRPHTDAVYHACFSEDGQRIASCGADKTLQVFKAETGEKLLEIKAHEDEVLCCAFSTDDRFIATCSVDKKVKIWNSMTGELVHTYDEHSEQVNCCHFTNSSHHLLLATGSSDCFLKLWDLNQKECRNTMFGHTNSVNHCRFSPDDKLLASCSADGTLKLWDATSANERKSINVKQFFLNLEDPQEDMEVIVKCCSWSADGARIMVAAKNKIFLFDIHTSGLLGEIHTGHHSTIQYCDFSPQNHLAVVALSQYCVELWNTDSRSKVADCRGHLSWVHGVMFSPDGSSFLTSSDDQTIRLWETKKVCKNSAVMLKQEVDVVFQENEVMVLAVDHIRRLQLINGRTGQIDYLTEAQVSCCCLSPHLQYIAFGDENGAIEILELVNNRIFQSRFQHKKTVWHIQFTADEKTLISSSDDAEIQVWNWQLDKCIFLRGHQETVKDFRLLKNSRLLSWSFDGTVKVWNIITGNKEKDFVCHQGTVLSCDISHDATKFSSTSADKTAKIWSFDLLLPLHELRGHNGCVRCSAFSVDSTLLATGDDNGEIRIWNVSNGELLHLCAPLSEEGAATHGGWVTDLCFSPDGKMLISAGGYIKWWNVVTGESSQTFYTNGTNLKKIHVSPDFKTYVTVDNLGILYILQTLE
Type of assay: functional.

Assay [9] is described as follows: HEK293 cell cytotoxicity, dose response, cytotoxicity control, plate reader, cherry-picked samples (AID 743446). Type of assay: functional, cell-based.
Assay [10] in a line: HepG2 cell cytotoxicity, dose response, cytotoxicity control, plate reader, cherry-pick, antagonist series (AID 743416). Type of assay: functional, cell-based.
Assay [11] is described as follows: LGR2 antagonists, dose response, cell-based, HEK293, CRE-luciferase reporter, cherry pick, set 2 (AID 743343).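 Further: transfected cells were stimulated with diluted bursicon conditioned medium after compound addition.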 Type of assay: functional. On the technique in general: Reporter assays use an easily measured gene product as a stand-in for the process of interest.
A short description of assay [12]: A Cell Based Secondary Assay To Explore Cytotoxicity of Compounds that Sensitize Mycobacterium Tuberculosis to Beta-Lactam Antibiotics. The class given is functional.
Assay [13] can be described thus: Shn3 3'UTR reporter inhibitors, dose response, cell-based, Clone20 osteoblasts, firefly luciferase, cherry-picked (AID 624132).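 Further: firefly luciferase luminescence from reporter carrying the Shn3 3'UTR in osteoblasts.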 Type of assay: functional.
The nature of assay [14]: HepG2 cell cytotoxicity, dose response, cytotoxicity control for Shn3 inhibitor project, CellTiter-Glo, cherry-picked (AID 624134). The class given is functional, cell-based. Background: Cellular ATP, detected with luciferase, serves as a proxy for viable cell number.
The nature of assay [15]: control 3'UTR Renilla luciferase suppression, dose response, counter-screen for Shn3 inhibitor project, cell-based, Clone20-Shn3RL, cherry-picked (AID 624133). The class given is functional.
Assay [16] deals with Vero. As to the kind of experiment: cells. The class given is functional. Particulars: Chlorocebus sabaeus.
The target of assay [17] is T3, Protein skinhead-1 (Caenorhabditis elegans, UniProt P34707).
T3 sequence (P34707 whole entry): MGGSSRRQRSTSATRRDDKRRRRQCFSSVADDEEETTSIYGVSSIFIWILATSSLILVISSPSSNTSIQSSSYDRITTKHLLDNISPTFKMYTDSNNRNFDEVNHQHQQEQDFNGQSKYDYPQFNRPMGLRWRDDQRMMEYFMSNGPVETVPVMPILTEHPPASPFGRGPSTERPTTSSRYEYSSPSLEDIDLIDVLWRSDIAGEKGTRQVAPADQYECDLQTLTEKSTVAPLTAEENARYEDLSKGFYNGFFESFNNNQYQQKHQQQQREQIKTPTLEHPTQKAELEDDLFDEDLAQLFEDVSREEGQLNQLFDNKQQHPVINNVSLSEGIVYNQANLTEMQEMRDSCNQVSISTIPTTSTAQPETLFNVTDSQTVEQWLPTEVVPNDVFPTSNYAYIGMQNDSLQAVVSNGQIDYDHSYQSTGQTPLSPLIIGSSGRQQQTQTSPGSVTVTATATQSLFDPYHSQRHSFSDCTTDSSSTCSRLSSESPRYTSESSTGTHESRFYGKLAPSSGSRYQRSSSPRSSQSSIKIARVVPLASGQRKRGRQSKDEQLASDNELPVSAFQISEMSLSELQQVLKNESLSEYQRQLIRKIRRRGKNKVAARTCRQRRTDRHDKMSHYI
Type of assay: functional.

In assay [18] the target is T4, High affinity choline transporter 1 (Homo sapiens, UniProt Q9GZV3).
T4 sequence (Q9GZV3 whole entry): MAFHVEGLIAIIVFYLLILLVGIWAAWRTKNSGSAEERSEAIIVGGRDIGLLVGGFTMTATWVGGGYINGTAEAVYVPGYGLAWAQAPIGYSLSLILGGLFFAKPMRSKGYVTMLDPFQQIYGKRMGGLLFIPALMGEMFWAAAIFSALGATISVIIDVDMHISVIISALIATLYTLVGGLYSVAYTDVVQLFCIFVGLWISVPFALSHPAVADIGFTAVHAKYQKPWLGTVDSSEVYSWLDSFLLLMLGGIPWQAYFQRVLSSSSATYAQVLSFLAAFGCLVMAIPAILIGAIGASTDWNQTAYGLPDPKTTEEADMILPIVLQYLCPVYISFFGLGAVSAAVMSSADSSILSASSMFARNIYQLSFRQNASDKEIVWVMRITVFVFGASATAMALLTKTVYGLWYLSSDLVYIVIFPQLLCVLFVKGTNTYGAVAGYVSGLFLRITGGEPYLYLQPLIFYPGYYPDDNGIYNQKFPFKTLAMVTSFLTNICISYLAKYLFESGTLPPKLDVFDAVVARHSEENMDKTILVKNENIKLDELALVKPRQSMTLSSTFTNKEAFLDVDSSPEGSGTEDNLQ
As to the kind of experiment: CHT inhibitors, dose response, cell-based, 5-point CRC, membrane potential dye (AID 504840). The class given is functional.

The nature of assay [19]: inhibitors of intracellular T. cruzi replication, confirmation, NIH3T3 host cells, beta-gal luminescence (AID 2044).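 Further: intracellular parasites grown in NIH/3T3 mouse fibroblasts as host cells; luminescent beta-galactosidase reporter signal from transgenic T. cruzi replicating inside host cells; inhibitors lower the luminescence signal.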 Type of assay: functional, cell-based.
Assay [20] has as its system INS1. As to the kind of experiment: beta cell apoptosis inhibitors, cytokine rescue, dose response, luminescence, retest (AID 449756).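 Further: cell death triggered by IL-1 beta plus TNF-alpha plus IFN-gamma mixture; protective hits raise ATP signal compared with cytokine alone wells.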 Type of assay: functional, cell-based. Particulars: Rattus norvegicus.
Assay [21] can be described thus: cytotoxicity toward NIH3T3 fibroblasts, dose response, counter-screen, cell-based, ATP luminescence, mouse fibroblasts (AID 2010).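 Further: cells exposed to compound for about 90 hours before reading.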 Type of assay: functional.
A short description of assay [22]: HEp-2 cell cytotoxicity, dose response, cytotoxicity control for RSV inhibitor project, HTS (AID 2410). The conditions noted are these: human respiratory syncytial virus. Type of assay: functional.

With `CCOc1ccccc1CNc1ncnc2ccc(-c3c(C)noc3C)cc12`, the AC50 in assay [1] was > 70 µM (inactive); in [2] it was 44.5 µM (active); in [3], 21.6 µM (active).

With `Cc1ccc(S(=O)(=O)N(C)C[C@@H]2Oc3ccc(NC(=O)C4CCCCC4)cc3CC(=O)N([C@@H](C)CO)C[C@@H]2C)cc1`, the AC50 in assay [4] is 3.75 µM (active); in assay [5], 2 µM (active); in assay [2], 12.2 µM (active).

In the case of `CCOc1cc(/C=C/C(=O)Nc2ccc(C(=O)NCCN(CC)CC)cc2)ccc1OCC(C)C`, the AC50 in assay [6] was 7.77 µM (active); in assay [9], 7.83 µM (active); in [10] it was 7.47 µM (active); in [11], 35 µM (active). For the same molecule, the IC50 was > 20 µM (inactive) in [7] and 28.5 µM (active) in assay [8].

As to `CC(C)C[C@H]1COCn2nncc2CC[C@@H](Cc2ccccc2)C(=O)N1`, the AC50 is 7.3 µM (active) in assay [4], 7.51 µM (active) in assay [5] and 12.9 µM (active) in assay [2].

In the case of `CC(C)CC(=O)NC(=S)Nc1ccc(N2CCN(C(=O)c3cccs3)CC2)cc1`, in assay [12], the 50% cytotoxic concentration (CC50) was 18.2 µM (active). Further, the half-maximal activity concentration (AC50) in [13] is 2.54 µM (active); in assay [14], 41.2 µM (active); in assay [15] it was > 70 µM (inactive).

On to `O=C(/C=C/c1ccccc1)c1ccc2ccccc2c1`, for which the CC50 in assay [16] is > 25 µM (active).

In the case of `COc1ccc(Cl)cc1NC(=O)CN(C1CCCCC1)S(C)(=O)=O`, the half-maximal activity concentration (AC50) in [4] was 3.13 µM (active); in [1] it was 4.33 µM (active); in assay [5], 5.49 µM (active); in assay [2] it was 2.69 µM (active).

As to `COC(=O)CNC(c1ccccc1Cl)c1cc(Br)ccc1NC(=O)CCN1CCOCC1` (stereo unspecified), the half-maximal cytotoxic concentration (CC50) in [12] is > 40 µM (active). Moreover, the IC50 in [17] is > 100 µM (inactive).

In the case of `CN(Cc1cccs1)c1ncnc2sccc12`, the figures for the half-maximal activity concentration (AC50) in [1], in assay [5] and in assay [2] were 56.6 µM (active), 1.3 µM (active) and 16.9 µM (active), respectively. The IC50 in [18] was 4.57 µM (active).

In the case of `CCOc1ccc(-[n+]2c(-c3ccccc3)cn3c2CCC3)cc1`, the concentration for a half-maximal effect (EC50) is 0.351 µM (active) in [19] and 24.2 µM (active) in assay [21]. The AC50 is 1.43 µM (active) in assay [20], 0.526 µM (active) in [13], 49 µM (active) in assay [14] and 0.392 µM (active) in assay [15].

Turning to `c1cc2c(cc1C1CCCCC1)c1c3n2CCN=C3CCC1`, the CC50 in [16] is > 25 µM (active).

For the molecule `CCN1C[C@@H]2[C@@H]3C(=O)N(Cc4ccccc4)C(=O)[C@@H]3[C@](CC)(C1=O)N2C(=O)c1ccc(C(C)(C)C)cc1`, the AC50 in assay [4] is 5.77 µM (active); in assay [1] it was 15.4 µM (active); in [5], 20.2 µM (active); in [2], 4.4 µM (active).

Take `Cc1nn(-c2ccccc2)c(O)c1/C=N/NC(=O)c1ccoc1C`: in [12], the CC50 is 4.71 µM (active). Also, the IC50 in assay [8] is 11.2 µM (active).

Turning to `CCOc1ccc(/C=C/C(O)=C2/C(=O)N(C)C3(C)CC2c2ccccc2O3)cc1OC` (stereo unspecified), the cytotoxic concentration (CC50) in [16] was 11.6 µM (active); in assay [22], 2.92 µM (active). Also, in [3], the AC50 is 2.44 µM (active).

In general, AC50 refers to the concentration giving half of the maximal activity seen. The term IC50 denotes the concentration needed to halve the response being measured. By CC50 is commonly meant the concentration at which the toxic effect on the cells reaches its halfway point. A word on the EC50: it is the concentration needed to bring the measured effect to its halfway point.
